In patent US11331289B2, “Antimicrobial composition” (priority 2017, dated 2022):
Converted amounts (≈) assume the structure as drawn. Like-named read-outs stand apart in the source and are kept apart here.

System: Malassezia pachydermatis
Test: MIC, microdilution broth method
Format: cell-based
Conditions: for MIC: Malassezia pachydermatis, read-out: MIC
Experimental: Six clinical isolates from dog skin (n=5) and cats (n=1) which had been sent to EnvA (mycology laboratory of BioPôle Alfort) for mycological culture. The isolates, collected in March 2016, were identified as belonging to the species Malassezia pachydermatis. They were maintained by regular transplanting on medium of Sabouraud. Isolates are subcultured 2 to 3 days prior to testing sensitivity.
A stock solution of Oxyclozanide at 1600 μg/mL is prepared in DMSO. The stock solution is then diluted in DMSO to obtain a concentration range of 3.125 μg/ml to 800 μg/ml. A 1/50 dilution of this range and of the stock solution is then carried out in ultrapure water so as to obtain a concentration range of 0.0625 μg/ml to 32 μg/ml and containing 2% of DMSO. 50 μl of these solutions are deposited in wells of a microplate and then 50 μl of inoculum calibrated at 10^6 CFU/ml in Sabouraud/Tween 40 (2%) are added. A range of tested concentrations ranges from 0.0312 μg/mL to 16 μg/mL. The final concentration of DMSO in contact with the inoculum is 1%. The same dilution and seeding protocol was followed with a stock solution of amphotericin B at 1600 μg/ml. A “placebo” (or yeast growth control) column is systematically included in the plates. The plates are incubated at 37 ° C. The reading is done at 24 and 48 h. Several trials were conducted and protocol adjustments were required. In particular, the concentration of the inoculum had to be reduced for antifungal activity to be observed.

In the case of `O=C(Nc1cc(Cl)cc(Cl)c1O)c1c(O)c(Cl)cc(Cl)c1Cl` [Oxyclozanide], the MIC (Isolate 1, Assay 1, 10^6 CFU/ml) is reported as 8 µg/mL (≈ 19.9 µM), the MIC (Isolate 1, Assay 2, 10^6 CFU/ml) is reported as 4 µg/mL (≈ 9.96 µM) and the MIC (Isolate 2, Assay 1, 10^6 CFU/ml) is reported as 8 µg/mL (≈ 19.9 µM). The MIC (Isolate 2, Assay 2, 10^6 CFU/ml) was 8 µg/mL (≈ 19.9 µM), the MIC (Isolate 3, Assay 1, 10^6 CFU/ml) was 8 µg/mL (≈ 19.9 µM) and the MIC (Isolate 3, Assay 2, 10^6 CFU/ml) was 16 µg/mL (≈ 39.9 µM). For the same compound, the MIC (Isolate 4, Assay 1, 10^6 CFU/ml) was over 16 µg/mL, the MIC (Isolate 4, Assay 2, 10^6 CFU/ml) was over 16 µg/mL and the MIC (Isolate 5, Assay 1, 10^6 CFU/ml) was 8 µg/mL (≈ 19.9 µM). The MIC (Isolate 5, Assay 2, 10^6 CFU/ml) was 8 µg/mL (≈ 19.9 µM), the MIC (Isolate 6, Assay 1, 10^6 CFU/ml) was 8 µg/mL (≈ 19.9 µM) and the MIC (Isolate 6, Assay 2, 10^6 CFU/ml) was 16 µg/mL (≈ 39.9 µM). For the same compound, the “Activity with respect to Malassezia pachydermatis” value (isolate 3) was “no activity” and the “Activity with respect to Malassezia pachydermatis” value (six clinical isolates) was “active”.
